Test results as given in ChEMBL document CHEMBL1201862, “PubChem BioAssay data set” (2004).
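Cells were grown in 96-well plates and exposed to each compound for 48 hours at five concentrations; endpoints were interpolated linearly between bracketing concentrations, or set to the highest concentration if not reached. Here, GI50 denotes the concentration required for 50% inhibition of growth.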 Active and inactive are the calls of the source. Rule as the data show it: active = GI50 up to about 1.1 µM and inactive = higher.

Key:
Experiment in all cases: growth of human tumour cells (NCI), 48 h
[1] = test system: NCI-H226
[2] = test system: A549
[3] = test system: SW-620
[4] = test system: OVCAR-3
[5] = test system: HCC 2998
[6] = test system: ACHN
[7] = test system: Malme-3M
[8] = test system: SF-268
[9] = test system: UO-31
[10] = test system: HCT-15
[11] = test system: SN12C
[12] = test system: RPMI-8226
[13] = test system: LOX IMVI
[14] = test system: A498
[15] = test system: SK-OV-3
[16] = test system: NCI-H23
[17] = test system: KM12

Measured: GI50

CCN1CCC(O)(c2ccc(Cl)c(Cl)c2)C(C(=O)c2ccc(Cl)c(Cl)c2)C1 (centres undefined)
inactive: [1] 21.4 µM | [2] 19.4 µM | [3] 19.5 µM | [4] 13.7 µM | [5] 19.9 µM | [6] 13.3 µM | [7] 18.2 µM | [8] 18.2 µM | [9] 17.3 µM | [11] 17.8 µM | [12] 1.65 µM | [13] 17.8 µM | [14] 21.5 µM | [15] 18.2 µM | [16] 19.7 µM
18.8 µM: [10]

Cn1cnc([N+](=O)[O-])c1Sc1nc2cc(Cl)c(F)cc2[nH]1
4.37 µM: [10]
inactive: [1] 9.55 µM | [2] 15.3 µM | [3] 5.73 µM | [4] > 10 µM | [5] 7.6 µM | [6] 12.9 µM | [7] 13.7 µM | [8] 10.1 µM | [9] 11.3 µM | [11] 14.1 µM | [17] 15 µM | [12] 7.24 µM | [13] 16.1 µM | [14] 18.6 µM | [15] 21.5 µM | [16] 11.5 µM

CC12CCC([C@H](N3CCOCC3)/C1=N\OCCN1CCCC1)C2(C)C (some centres undefined)
inactive: [1] > 100 µM | [2] > 100 µM | [3] > 100 µM | [4] > 100 µM | [5] > 100 µM | [6] > 100 µM | [7] > 100 µM | [8] > 100 µM | [9] > 100 µM | [11] > 100 µM | [17] > 100 µM | [12] > 100 µM | [13] > 100 µM | [14] > 100 µM | [15] > 100 µM | [16] > 100 µM
> 100 µM: [10]

CNC(SC)=C1C(=O)OC(C)(C)OC1=O
19.8 µM: [10]
inactive: [1] > 100 µM | [2] > 100 µM | [3] 20 µM | [4] > 100 µM | [5] > 100 µM | [6] > 100 µM | [7] > 100 µM | [8] > 100 µM | [9] > 100 µM | [11] > 100 µM | [17] > 100 µM | [12] > 100 µM | [13] 73.3 µM | [14] > 100 µM | [15] > 100 µM | [16] > 100 µM

COc1cc2c([C@@H](OC(=O)c3ccccc3)c3ccc4c(c3)OCO4)nccc2c(OC)c1OC
inactive: [1] 23.5 µM | [2] 17.3 µM | [3] > 100 µM | [4] 25.6 µM | [5] 92 µM | [7] 64.6 µM | [8] 48.8 µM | [9] 2.7 µM | [11] 38.5 µM | [12] 9.71 µM | [13] 29.2 µM | [14] 32.2 µM | [15] > 100 µM | [16] 23.7 µM
37.6 µM: [10]

c1ccc(CN2CCCCC(Sc3ccccc3)CC2)cc1 (centres undefined)
17.6 µM: [10]
inactive: [1] 32.1 µM | [2] 87.3 µM | [3] 1.53 µM | [4] 33.9 µM | [5] 16 µM | [6] 47.3 µM | [7] 19.1 µM | [8] > 100 µM | [9] 15.3 µM | [11] 24.7 µM | [17] > 100 µM | [12] 17.8 µM | [13] 16.5 µM | [14] > 100 µM | [15] 58.2 µM | [16] 30.1 µM
